Laboratory results from article PMC5218480 (PLoS ONE, 2017).

Tested on: MV-4-11 cells
Experiment: Gene expression microarray analysis (Affymetrix PrimeView) and GSEA
Type: cell-based, human
Set-up: RFU PODN (11730768_x_at) / Fold change /veh PODN (11730768_x_at) / RFU LINC00158 (11744669_a_at) / Fold change /veh LINC00158 (11744669_a_at) / RFU DUSP10 (11751237_a_at) / Fold change /veh DUSP10 (11751237_a_at) / RFU ID3 (11757404_x_at) / Fold change /veh ID3 (11757404_x_at) / RFU PLEKHG5 (11737974_s_at) / Fold change /veh PLEKHG5 (11737974_s_at) / RFU LRRC4B (11730491_at) / Fold change /veh LRRC4B (11730491_at) / RFU GIMAP4 (11747438_a_at) / Fold change /veh GIMAP4 (11747438_a_at) / RFU KRT8 (11758183_x_at) / Fold change /veh KRT8 (11758183_x_at) / RFU CNN1 (11734310_a_at) / Fold change /veh CNN1 (11734310_a_at) / RFU VPS37D (11726825_at) / Fold change /veh VPS37D (11726825_at) / RFU C10orf10 (11716522_x_at) / Fold change /veh C10orf10 (11716522_x_at) / RFU KIR2DL2 /// KIR2DL4 /// KIR2DL5A /// KIR2DL5B /// KIR2DS1 /// KIR2DS2 /// KIR2DS3 /// KIR2DS4 /// KIR3DL3 /// KIR3DL3 /// KIR3DS1 (11738374_at) / Fold change /veh KIR2DL2 /// KIR2DL4 /// KIR2DL5A /// KIR2DL5B /// KIR2DS1 /// KIR2DS2 /// KIR2DS3 /// KIR2DS4 /// KIR3DL3 /// KIR3DL3 /// KIR3DS1 (11738374_at) / RFU C1QL1 (11718748_at) / Fold change /veh C1QL1 (11718748_at) / RFU TMPRSS4 (11747572_a_at) / Fold change /veh TMPRSS4 (11747572_a_at) / RFU HAMP (11756126_x_at) / Fold change /veh HAMP (11756126_x_at) / RFU RNFT2 (11725882_a_at) / Fold change /veh RNFT2 (11725882_a_at) / RFU NR4A2 (11747474_a_at) / Fold change /veh NR4A2 (11747474_a_at) / RFU ABCC12 (11746883_a_at) / Fold change /veh ABCC12 (11746883_a_at) / RFU TMEM136 (11760407_x_at) / Fold change /veh TMEM136 (11760407_x_at) / RFU CLDN22 /// WWC2 (11732394_at) / Fold change /veh CLDN22 /// WWC2 (11732394_at) / RFU HLA-DPB1 (11760878_x_at) / Fold change /veh HLA-DPB1 (11760878_x_at) / RFU SPINT1 (11716480_a_at) / Fold change /veh SPINT1 (11716480_a_at) / RFU GAP43 (11754022_s_at) / Fold change /veh GAP43 (11754022_s_at) / RFU A4GNT (11735810_at) / Fold change /veh A4GNT (11735810_at) / RFU PRB3 (11715151_x_at) / Fold change /veh PRB3 (11715151_x_at) / RFU TUBB4B (11761932_at) / Fold change /veh TUBB4B (11761932_at) / RFU CAPN14 (11732068_a_at) / Fold change /veh CAPN14 (11732068_a_at) / RFU TMCC2 (11721928_a_at) / Fold change /veh TMCC2 (11721928_a_at) / RFU IRGQ (11745062_a_at) / Fold change /veh IRGQ (11745062_a_at) / RFU FAM174B (11720279_a_at) / Fold change /veh FAM174B (11720279_a_at) / RFU TMPRSS4 (11748680_a_at) / Fold change /veh TMPRSS4 (11748680_a_at) / RFU FAM212B (11763350_a_at) / Fold change /veh FAM212B (11763350_a_at) / RFU PLEKHG5 (11743358_a_at) / Fold change /veh PLEKHG5 (11743358_a_at) / RFU ZSCAN30 (11745921_a_at) / Fold change /veh ZSCAN30 (11745921_a_at) / RFU CMKLR1 (11741424_a_at) / Fold change /veh CMKLR1 (11741424_a_at) / RFU LOC101060620 /// MAPK8IP1 (11723275_at) / Fold change /veh LOC101060620 /// MAPK8IP1 (11723275_at) / RFU SPTSSB (11747773_x_at) / Fold change /veh SPTSSB (11747773_x_at) / RFU PRSS12 (11739890_at) / Fold change /veh PRSS12 (11739890_at) / RFU BIN1 (11741810_x_at) / Fold change /veh BIN1 (11741810_x_at) / RFU WNT11 (11732464_a_at) / Fold change /veh WNT11 (11732464_a_at) / RFU C10orf10 (11716521_a_at) / Fold change /veh C10orf10 (11716521_a_at) / RFU C5orf56 (11738089_at) / Fold change /veh C5orf56 (11738089_at) / RFU CYB561 (11721691_x_at) / Fold change /veh CYB561 (11721691_x_at) / RFU ANKRD19P (11752326_a_at) / Fold change /veh ANKRD19P (11752326_a_at) / RFU OR2T12 /// OR2T33 /// OR2T8 (11738714_s_at) / Fold change /veh OR2T12 /// OR2T33 /// OR2T8 (11738714_s_at) / RFU VCAN (11748164_a_at) / Fold change /veh VCAN (11748164_a_at) / RFU JSRP1 (11732532_at) / Fold change /veh JSRP1 (11732532_at) / RFU KRTAP10-11 (11738290_x_at) / Fold change /veh KRTAP10-11 (11738290_x_at) / RFU MYO3A (11730013_a_at) / Fold change /veh MYO3A (11730013_a_at) / RFU EBF3 (11725865_a_at) / Fold change /veh EBF3 (11725865_a_at) / RFU CAMK2N1 (11719241_x_at) / Fold change /veh CAMK2N1 (11719241_x_at) / RFU C5orf56 (11738088_a_at) / Fold change /veh C5orf56 (11738088_a_at) / RFU OLFML3 (11715873_a_at) / Fold change /veh OLFML3 (11715873_a_at) / RFU LOC100653217 /// NTM (11731650_a_at) / Fold change /veh LOC100653217 /// NTM (11731650_a_at) / RFU MAPK11 (11762145_a_at) / Fold change /veh MAPK11 (11762145_a_at) / RFU FIZ1 (11724087_x_at) / Fold change /veh FIZ1 (11724087_x_at) / RFU OASL (11726364_x_at) / Fold change /veh OASL (11726364_x_at) / RFU SOX15 (11748057_x_at) / Fold change /veh SOX15 (11748057_x_at) / RFU CD79A (11719716_a_at) / Fold change /veh CD79A (11719716_a_at) / RFU HIST1H1D (11736915_at) / Fold change /veh HIST1H1D (11736915_at) / RFU CASKIN2 (11723855_a_at) / Fold change /veh CASKIN2 (11723855_a_at) / RFU LOC730098 (11760151_x_at) / Fold change /veh LOC730098 (11760151_x_at) / RFU OR4N2 (11742367_at) / Fold change /veh OR4N2 (11742367_at) / RFU PRRT2 (11749266_a_at) / Fold change /veh PRRT2 (11749266_a_at) / RFU SNX32 (11753110_a_at) / Fold change /veh SNX32 (11753110_a_at) / RFU CDHR5 (11726645_a_at) / Fold change /veh CDHR5 (11726645_a_at) / RFU RCAN1 (11760418_a_at) / Fold change /veh RCAN1 (11760418_a_at) / RFU FAM167A (11723789_a_at) / Fold change /veh FAM167A (11723789_a_at) / RFU FAM26E (11764081_at) / Fold change /veh FAM26E (11764081_at) / RFU ISYNA1 (11749810_s_at) / Fold change /veh ISYNA1 (11749810_s_at) / RFU ACY1 (11761880_at) / Fold change /veh ACY1 (11761880_at) / RFU 11764098_at / Fold change /veh 11764098_at / RFU SAMD14 (11745864_x_at) / Fold change /veh SAMD14 (11745864_x_at) / RFU NPB (11741838_a_at) / Fold change /veh NPB (11741838_a_at) / RFU TMPRSS6 (11731388_a_at) / Fold change /veh TMPRSS6 (11731388_a_at) / RFU KRTAP10-2 (11738614_at) / Fold change /veh KRTAP10-2 (11738614_at) / RFU ARHGAP8 /// PRR5-ARHGAP8 (11727945_x_at) / Fold change /veh ARHGAP8 /// PRR5-ARHGAP8 (11727945_x_at) / RFU KRTAP5-7 /// NADSYN1 (11734609_at) / Fold change /veh KRTAP5-7 /// NADSYN1 (11734609_at) / RFU RASL12 (11751679_a_at) / Fold change /veh RASL12 (11751679_a_at) / RFU CDKN2B (11736163_a_at) / Fold change /veh CDKN2B (11736163_a_at) / RFU PRF1 (11729649_at) / Fold change /veh PRF1 (11729649_at) / RFU, ZNF638 /// ZNF638-IT1 / Fold change vs veh, ZNF638 /// ZNF638-IT1 / RFU, PANK3 / Fold change vs veh, PANK3 / RFU, SH3YL1 / Fold change vs veh, SH3YL1 / RFU, ZEB2 / Fold change vs veh, ZEB2 / RFU, NRIP1 / Fold change vs veh, NRIP1 / RFU, PTTG1IP / Fold change vs veh, PTTG1IP / RFU, CAPN2 / Fold change vs veh, CAPN2 / RFU, MED14 / Fold change vs veh, MED14 / RFU, SNORA58 / Fold change vs veh, SNORA58 / RFU, C1orf63 / Fold change vs veh, C1orf63 / RFU, LRRFIP1 / Fold change vs veh, LRRFIP1 / RFU, NDUFAF7 / Fold change vs veh, NDUFAF7 / RFU, SLC12A2 / Fold change vs veh, SLC12A2 / RFU, IBTK / Fold change vs veh, IBTK / RFU, ESF1 / Fold change vs veh, ESF1 / Fold change vs veh, TMEM50B / RFU, TAOK1 / Fold change vs veh, TAOK1 / RFU, ACBD3 / Fold change vs veh, ACBD3 / RFU, TMA16 / Fold change vs veh, TMA16 / RFU, RWDD3 / Fold change vs veh, RWDD3 / RFU, BCAT1 / Fold change vs veh, BCAT1 / RFU, EDEM3 / Fold change vs veh, EDEM3 / RFU, TMEM33 / Fold change vs veh, TMEM33 / RFU, WDR75 / Fold change vs veh, WDR75 / RFU, AHCTF1 / Fold change vs veh, AHCTF1 / RFU, TFRC / Fold change vs veh, TFRC / RFU, ZDHHC17 / Fold change vs veh, ZDHHC17 / RFU, NOM1 / Fold change vs veh, NOM1 / RFU, ARL8B / Fold change vs veh, ARL8B / RFU, ZBTB11 / Fold change vs veh, ZBTB11 / RFU, TAMM41 / Fold change vs veh, TAMM41 / RFU, KIAA1704 /// LOC100996395 / Fold change vs veh, KIAA1704 /// LOC100996395 / RFU, ING1 / Fold change vs veh, ING1 / RFU, TRMT61B / Fold change vs veh, TRMT61B / RFU, FUBP3 / Fold change vs veh, FUBP3 / RFU, TP53 / Fold change vs veh, TP53 / RFU, TNKS2 / Fold change vs veh, TNKS2 / RFU, ZFP14 / Fold change vs veh, ZFP14 / RFU, ACTR2 / Fold change vs veh, ACTR2 / RFU, PPP3R1 / Fold change vs veh, PPP3R1 / RFU, PIK3R1 / Fold change vs veh, PIK3R1 / RFU, HNRNPA1 / Fold change vs veh, HNRNPA1 / RFU, RNF170 / Fold change vs veh, RNF170 / RFU, ZNF28 / Fold change vs veh, ZNF28 / RFU, RNGTT / Fold change vs veh, RNGTT / RFU, OGT / Fold change vs veh, OGT / RFU, BRD1 / Fold change vs veh, BRD1 / RFU, MARS / Fold change vs veh, MARS / RFU, ZNF655 / Fold change vs veh, ZNF655 / RFU, FAHD1 / Fold change vs veh, FAHD1 / RFU, BDP1 / Fold change vs veh, BDP1 / RFU, LRRCC1 / Fold change vs veh, LRRCC1 / RFU, ARID1A / Fold change vs veh, ARID1A / RFU, ZNF146 / Fold change vs veh, ZNF146 / RFU, ZNF330 / Fold change vs veh, ZNF330 / RFU, GPN3 / Fold change vs veh, GPN3 / RFU, C9orf123 / Fold change vs veh, C9orf123 / RFU, N4BP2L2 / Fold change vs veh, N4BP2L2 / RFU, ARFIP1 / Fold change vs veh, ARFIP1 / RFU, FAM179B / Fold change vs veh, FAM179B / RFU, BCL10 / Fold change vs veh, BCL10 / RFU, UHRF1BP1L / Fold change vs veh, UHRF1BP1L / RFU, BET1 / Fold change vs veh, BET1 / RFU, CNOT2 / Fold change vs veh, CNOT2 / RFU, ZNF268 / Fold change vs veh, ZNF268 / Fold change vs veh, ZNF507 / RFU, DGCR2 / Fold change vs veh, DGCR2 / RFU, WDSUB1 / Fold change vs veh, WDSUB1 / Fold change vs veh, HSP90B1 /// MIR3652 / RFU, ADSS / Fold change vs veh, ADSS / RFU, GK / Fold change vs veh, GK / RFU, ZNF148 / Fold change vs veh, ZNF148 / RFU, TAF9 / Fold change vs veh, TAF9 / RFU, SLC1A5 / Fold change vs veh, SLC1A5 / RFU, SLMO2 / Fold change vs veh, SLMO2 / RFU, ABCC4 / Fold change vs veh, ABCC4 / RFU, LOC101060439 /// RAP1B / Fold change vs veh, LOC101060439 /// RAP1B / RFU, RFX7 / Fold change vs veh, RFX7 / RFU, GTPBP10 / Fold change vs veh, GTPBP10 / RFU, CNEP1R1 / Fold change vs veh, CNEP1R1 / RFU, BIVM-ERCC5 /// ERCC5 / Fold change vs veh, BIVM-ERCC5 /// ERCC5 / RFU, ILF3 / Fold change vs veh, ILF3 / RFU 11762660_at / Fold change /veh 11762660_at / RFU VCAN (11757783_s_at) / Fold change /veh VCAN (11757783_s_at) / RFU DDX43 (11728927_at) / Fold change /veh DDX43 (11728927_at) / RFU KRT8 (11758188_x_at) / Fold change /veh KRT8 (11758188_x_at) / RFU NKD1 (11759106_at) / Fold change /veh NKD1 (11759106_at) / RFU SRD5A1 (11742802_a_at) / Fold change /veh SRD5A1 (11742802_a_at) / RFU TPSAB1 /// TPSB2 (11721975_s_at) / Fold change /veh TPSAB1 /// TPSB2 (11721975_s_at) / RFU GSTM3 (11746129_a_at) / Fold change /veh GSTM3 (11746129_a_at) / RFU IL23R (11737362_x_at) / Fold change /veh IL23R (11737362_x_at) / RFU TMEM51 (11727254_a_at) / Fold change /veh TMEM51 (11727254_a_at) / RFU PIWIL2 (11732686_x_at) / Fold change /veh PIWIL2 (11732686_x_at) / RFU ORM1 (11744905_x_at) / Fold change /veh ORM1 (11744905_x_at) / RFU CCDC152 (11743942_at) / Fold change /veh CCDC152 (11743942_at) / RFU ECM1 (11717891_a_at) / Fold change /veh ECM1 (11717891_a_at) / RFU IL23R (11748794_a_at) / Fold change /veh IL23R (11748794_a_at) / RFU TNFAIP8L3 (11732012_x_at) / Fold change /veh TNFAIP8L3 (11732012_x_at) / RFU MBOAT4 (11741988_at) / Fold change /veh MBOAT4 (11741988_at) / RFU 11764193_at / Fold change /veh 11764193_at / RFU TMEM53 (11763286_at) / Fold change /veh TMEM53 (11763286_at) / RFU MAGEB2 (11727129_at) / Fold change /veh MAGEB2 (11727129_at) / RFU TMEM200A (11744735_a_at) / Fold change /veh TMEM200A (11744735_a_at) / RFU CCDC152 (11751479_a_at) / Fold change /veh CCDC152 (11751479_a_at) / RFU FAM211A (11726209_a_at) / Fold change /veh FAM211A (11726209_a_at) / RFU RGS16 (11746705_a_at) / Fold change /veh RGS16 (11746705_a_at) / RFU VCAN (11755009_s_at) / Fold change /veh VCAN (11755009_s_at) / RFU RHOB (11743442_s_at) / Fold change /veh RHOB (11743442_s_at) / RFU RGS16 (11720943_a_at) / Fold change /veh RGS16 (11720943_a_at) / RFU RGS16 (11720944_at) / Fold change /veh RGS16 (11720944_at) / RFU, VPS4B / Fold change vs veh, VPS4B / RFU, CREB1 / Fold change vs veh, CREB1 / RFU, DNAJC13 / Fold change vs veh, DNAJC13 / RFU, GNAQ / Fold change vs veh, GNAQ / RFU, CDK5R1 / Fold change vs veh, CDK5R1 / RFU, ZRANB3 / Fold change vs veh, ZRANB3 / RFU, CUL4A / Fold change vs veh, CUL4A / RFU, CCNY / Fold change vs veh, CCNY / RFU, UFL1 / Fold change vs veh, UFL1 / RFU, COG3 / Fold change vs veh, COG3 / RFU, DIAPH2 / Fold change vs veh, DIAPH2 / RFU, SKA2 / Fold change vs veh, SKA2 / RFU, AFF3 / Fold change vs veh, AFF3 / RFU, LMF1 / Fold change vs veh, LMF1 / RFU, IPO11 / Fold change vs veh, IPO11 / RFU, DFFB / Fold change vs veh, DFFB / RFU, FOXP1 / Fold change vs veh, FOXP1 / RFU, CARD8 / Fold change vs veh, CARD8 / RFU, STRN3 / Fold change vs veh, STRN3 / RFU, ADK / Fold change vs veh, ADK / RFU, RASSF2 / Fold change vs veh, RASSF2 / RFU, WIPF1 / Fold change vs veh, WIPF1 / RFU, LARP1B / Fold change vs veh, LARP1B / RFU, RASA1 / Fold change vs veh, RASA1 / RFU, RB1 / Fold change vs veh, RB1 / RFU, PPFIA1 / Fold change vs veh, PPFIA1 / RFU, MAT2A / Fold change vs veh, MAT2A / RFU, CCT5 / Fold change vs veh, CCT5 / RFU, WDR92 / Fold change vs veh, WDR92 / RFU, CUX1 / Fold change vs veh, CUX1 / RFU, TTC7A / Fold change vs veh, TTC7A / RFU, TMEM135 / Fold change vs veh, TMEM135 / RFU, DEPTOR / Fold change vs veh, DEPTOR / RFU, CPM / Fold change vs veh, CPM / RFU, DNAJB6 / Fold change vs veh, DNAJB6 / RFU, CACNA2D3 / Fold change vs veh, CACNA2D3 / RFU, DTX4 / Fold change vs veh, DTX4 / RFU, TFCP2 / Fold change vs veh, TFCP2 / RFU, GMCL1 /// GMCL1P1 / Fold change vs veh, GMCL1 /// GMCL1P1 / RFU, AEBP2 / Fold change vs veh, AEBP2 / RFU, SNHG1 /// SNORD22 /// SNORD25 /// SNORD26 /// SNORD27 /// SNORD28 /// SNORD29 /// SNORD31 / Fold change vs veh, SNHG1 /// SNORD22 /// SNORD25 /// SNORD26 /// SNORD27 /// SNORD28 /// SNORD29 /// SNORD31 / Fold change (Aza/veh), C12orf56 (ProbeSet 11735607_a_at) / Fold change (ACY-1035/veh), C12orf56 (ProbeSet 11735607_a_at) / Fold change (Aza/veh), FGFR1OP (ProbeSet 11751329_s_at) / Fold change (ACY-1035/veh), FGFR1OP (ProbeSet 11751329_s_at) / Fold change (Aza/veh), VPS36 (ProbeSet 11739960_a_at) / Fold change (ACY-1035/veh), VPS36 (ProbeSet 11739960_a_at) / RFU SYPL1 (11715823_x_at) / Fold change /veh SYPL1 (11715823_x_at) / RFU IGFBP7 (11715501_s_at) / Fold change /veh IGFBP7 (11715501_s_at) / RFU REEP3 (11722064_at) / Fold change /veh REEP3 (11722064_at) / RFU IGLL1 (11728026_x_at) / Fold change /veh IGLL1 (11728026_x_at): dose or concentration left out as unconfirmed
Details: ProbeSet 11741311_a_at; LIST B

## Nc1ncn([C@@H]2O[C@H](CO)[C@@H](O)[C@H]2O)c(=O)n1 [azacitidine]
  Fold change vs veh, ZNF655: 0.98
